Measured values published in publication PMC9697438, “Therapeutic Potential of 2-Methylquinazolin-4(3H)-one as an Antiviral Agent against Influenza A Virus-Induced Acute Lung Injury in Mice” (Molecules, 2022).
In brackets after ≈: the same amount, converted by molar mass. Read-outs that look alike come from different tables or passages of the source.

What was measured:
[1] = system: H1N1 virus; assay: microbe, parasite or virus in culture; assay type: cell-based, influenza A virus; conditions: for IC50: Influenza A virus, H1N1, MDCK, 72 h
[2] = Solubility observation; assay type: physicochemical; conditions: sterile water
[3] = system: neuraminidase (NA); assay: Neuraminidase activity assay in lung homogenates of H1N1-infected mice; assay type: in vivo, BALB/c mice
Protocol: (§1) Five-week-old healthy male BALB/c mice (n = 6 per group) were maintained in pathogen-free individual cages with free access to drinking water and sterilized food, as described previously. The mice were randomly allocated into the following groups: normal control group, H1N1 model group, C1 (2.5, 5, 10 mg/kg) treatment group, and positive control group treated with oseltamivir (20 mg/kg, positive control). Except for normal controls, the rest of mice were intranasally infected with 30 μL of diluted H1N1virus (3LD50) after light anesthesia. Negative control mice (normal group) were challenged by inhaling equal volumes (30 μL) of virus diluent as the other mice. Then, 2 h later, C1 (2.5, 5, 10 mg/kg) and Oseltamivir (20 mg/kg) dissolved in 5% CMC-Na solution were given to mice (0.1 mL/10 g) once per day (i.g.) at day 0 (D0), day 1 (D1), day 2 (D2) and day 3 (D3) after infection with H1N1 virus. […]
Viral titers were measured using neuraminidase (NA) assay kit designed to detect antiviral effects. […] A reaction mixture consisted of 10 μL lung homogenates, 70 μL detection buffer, 10 μL Mill-Q water and 10 μL NA fluorescence substrate in a 96-well plate. […] The fluorescence of the mixture was quantified at 322 nm of excitation wavelength and 450 nm of emission wavelength with a muti-mode microplate read (Waltham, VT, USA). […]

[4] = system: influenza A virus nucleoprotein (NP); assay: Immunohistochemistry of viral nucleoprotein in lung tissue of H1N1-infected mice; assay type: in vivo, BALB/c mice; conditions: C1-treated mice vs indirubin-treated mice and model group; day 4
Protocol: as §1, with “mice.” for “mice. Then, 2 h later, C1 (2.5, 5, 10 mg/kg) and Oseltamivir (20 mg/kg) dissolved in 5% CMC-Na solution were given to mice (0.1 mL/10 g) once per day (i.g.) at day 0 (D0), day 1 (D1), day 2 (D2) and day 3 (D3) after infection with H1N1 virus.”
Influenza virus load, expression of NPs and ionized calcium binding adaptor molecule-1(Iba-1) were determined using IHC. […]
Figure 4 Suppression of H1N1 viral replication in vivo by C1, the experimental protocol is the same as Figure 3. (A) The NA activity in lung homogenates by fluorescence effect; (B) The expression level of INF-α in lung homogenates by ELISA; (C) The expression of NP in lung tissue, the representative IHC pathological images of the lung on day 4 post-infection, the red arrow indicates viral N protein-positive signal. […]

[5] = system: ionized calcium binding adaptor molecule-1 (Iba-1); parameters: species or system BALB/c mice; conditions: mouse, in vivo
[6] = system: cytokines in lung homogenates; assay: ELISA of cytokines in lung tissue homogenates of H1N1-infected mice; assay type: in vivo, BALB/c mice; conditions: for expression level of IL-10 in lung homogenates / expression level of INF-γ in lung homogenates: C1 10 mg/kg, Os. 20 mg/kg, vs H1N1 virus group; for IL-1β level in lung homogenates / IL-6 level in lung homogenates / MCP-1 production in lung homogenates / TNF-α level in lung homogenates: C1 2.5, 5, 10 mg/kg, oseltamivir phosphate 20 mg/kg, vs model group, dose-dependent, p < 0.001, day 4
Protocol: Five-week-old healthy male BALB/c mice (n = 6 per group) were maintained in pathogen-free individual cages with free access to drinking water and sterilized food, as described previously. The mice were randomly allocated into the following groups: normal control group, H1N1 model group, C1 (2.5, 5, 10 mg/kg) treatment group, and positive control group treated with oseltamivir (20 mg/kg, positive control). Except for normal controls, the rest of mice were intranasally infected with 30 μL of diluted H1N1virus (3LD50) after light anesthesia. Negative control mice (normal group) were challenged by inhaling equal volumes (30 μL) of virus diluent as the other mice. Then, 2 h later, C1 (2.5, 5, 10 mg/kg) and Oseltamivir (20 mg/kg) dissolved in 5% CMC-Na solution were given to mice (0.1 mL/10 g) once per day (i.g.) at day 0 (D0), day 1 (D1), day 2 (D2) and day 3 (D3) after infection with H1N1 virus. At the same time, normal and model groups were administered equivalent amounts of 0.5% CMC-Na in the same way. Post-infection on day 4, the mice were sacrificed to collect blood plasma, lung and liver, which were weighed.
Pulmonary tissue homogenates were collected from mice lungs by centrifugation at 4500 rpm for 20 min. BCA assay was used to quantify the total protein in the supernatant of lung homogenates. Cytokine levels of IL-1β, IL-6, TNF-α, IL-10, MCP-1, INF-γ and INF-α were determined, as instructed by the manufacturer.
Figure 5 C1-alleviated lung injury in mice after 4 days of administration (n = 6, means ± S.D.); the experiment design is the same as Figure 3. Concentration of chemokines/cytokines/interferon was measured on day 4 post-infection by ELISA in lung homogenates (n = 6). (A) IL-6; (B) IL-1β; (C) TNF-α; (D) MCP-1; (E) IL-10; (F) IFN-γ.

[7] = system: influenza virus H1N1 (A/FM/1/47); conditions: for lung index: day 4, p < 0.001 vs model
[8] = system: A549 cells; assay: MTT cytotoxicity assay (TC50)
[9] = system: A549 cells; conditions: human
[10] = system: hepatitis C virus; parameters: method as in earlier work; conditions: cited from earlier work
[11] = system: H1N1 influenza virus; assay: H1N1-induced ALI in mice treated with EA extract: lung index, liver index, body weight, H&E; assay type: in vivo

Cc1nc2ccccc2c(=O)[nH]1 [Compound C1, 2-Methylquinazolin-4(3H)-one]
IC50 [1]: 23.8 µg/mL (≈ 149 µM) | solubility [2]: soluble | NA activity in lung homogenates ([3]; C1 2.5 mg/kg, vs model control): no differences | NA activity in lung homogenates ([3]; C1 5, 10 mg/kg, vs model group, p < 0.05): significantly lower | viral N protein-positive signals in lung tissue [4]: fewer positive signals | Iba-1 positive signals in lung tissue (macrophage recruitment) [5]: fewer positive signals | expression level of IL-10 in lung homogenates [6]: higher | expression level of INF-γ in lung homogenates [6]: higher | IL-1β level in lung homogenates [6]: significantly reduced | IL-6 level in lung homogenates [6]: significantly reduced | MCP-1 production in lung homogenates [6]: significantly reduced | TNF-α level in lung homogenates [6]: significantly reduced | production of IFN-α in lung homogenates ([6]; after treatment with C1, ELISA): remarkably decreased | lung index ([7]; C1 2.5 mg/kg i.g. once daily D0-D3, model 10.27 ± 0.50, normal 6.40 ± 0.14): 8.85 ± 0.47 mg/g | weight rate of mice raised ([7]; C1 2.5 mg/kg, days 0-4, model decreased 4.5%): 2% | lung index ([7]; C1 5 mg/kg i.g. once daily D0-D3, model 10.27 ± 0.50): 8.60 ± 0.29 mg/g | weight rate of mice decreased ([7]; C1 5 mg/kg, days 0-4, model decreased 4.5%): 2% | lung index ([7]; C1 10 mg/kg i.g. once daily D0-D3, model 10.27 ± 0.50): 8.36 ± 0.28 mg/g | weight rate of mice raised ([7]; C1 10 mg/kg, days 0-4): 0.2% | lung histological damage (H&E) ([7]; mouse, in vivo): significantly less | toxicity on liver and spleen ([7]; mouse, in vivo, po): no toxicity | TC50 [8]: 79.7 µg/mL (≈ 498 µM)

CC1(C)C[C@H](O)C[C@@]2(C)OC(=O)C=C12 [Compound C2, loliolide]
antiviral activity [1]: did not exert any antiviral activity | TC50 [9]: 26.7 µg/mL (≈ 136 µM) | inhibition of the hepatitis C virus [10]: potent inhibitor

Cc1nc2ccccc2c(=O)n1-c1ccccc1O [Compound C3, 3-(2′-Hydroxyphenyl)-2-methyl-4(3H)-quinazolinone]
IC50 [1]: 100 µg/mL (≈ 396 µM) | TC50 [8]: 106.8 µg/mL (≈ 423 µM)

O=C1c2cc(O)cc(O)c2CN1c1ccc(O)cc1 [Compound C4, clitocybin A]
antiviral activity [1]: did not exert any antiviral activity | TC50 [8]: 167.7 µg/mL (≈ 652 µM)

CCOC(=O)C1=C[C@@H](OC(CC)CC)[C@H](NC(C)=O)[C@@H](N)C1 [Os., Oseltamivir phosphate, reference compound]
expression level of IL-10 in lung homogenates [6]: higher | expression level of INF-γ in lung homogenates [6]: higher | IL-1β level in lung homogenates [6]: significantly reduced | IL-6 level in lung homogenates [6]: significantly reduced | MCP-1 production in lung homogenates [6]: significantly reduced | TNF-α level in lung homogenates [6]: significantly reduced | weight rate of mice raised ([7]; Os. 20 mg/kg, days 0-4): 21.6% | lung histological damage (H&E) ([7]; mouse, in vivo): significantly less

NC(=O)c1ncn([C@@H]2O[C@H](CO)[C@@H](O)[C@H]2O)n1 [Ribavrin, Ribavirin]
IC50 [1]: 37.2 µg/mL (≈ 152 µM) | body weight over 5 days ([11]; EA extract 10 mg/kg, Ribavirbin 100 mg/kg, day 1 to day 5): gained weight | lung tissue histological changes (H&E) ([11]; EA extract and Ribavirin groups compared to the infected group): relieved tissue consolidation | lung index ([11]; Ribavirbin 100 mg/kg i.g. once daily 4 days, model 11.58 ± 0.39, p < 0.001): 7.32 ± 0.39 mg/g | liver index ([11]; Ribavirbin 100 mg/kg, model 50.73 ± 0.58, normal 62.79 ± 1.24): 59.60 ± 1.68 mg/g

O=C1Nc2ccccc2/C1=C1/Nc2ccccc2C1=O [indirubin, reference compound]
Iba-1 positive signals in lung tissue (macrophage recruitment) [5]: fewer positive signals | lung edema measured as lung index ([7]; mouse, in vivo): minimal effect | lung histological damage (H&E) ([7]; mouse, in vivo): no evident histological alteration
